# Assay results as given in US10406166B2, “Antimicrobial compound” (priority 2015, dated 2019).
# Read-outs that look alike come from different tables or passages of the source.
# How the values were obtained:
# [1] = system: Staphylococcus aureus; assay: Antimicrobial susceptibility (MIC, agar dilution); format: cell-based; details: Isosensitest agar, 128-1 μg/mL, 37° C. for 24 h
# Procedure: (§1) For each putative antimicrobial, determination of the antimicrobial susceptibility was performed in strict accordance with the recommendations of the British Society for Antimicrobial Chemotherapy. Isosensitest agar (Oxoid) was prepared according to the manufacturer's instructions and sterilized by autoclaving at 116° C. for 20 min. This was then cooled to 50° C. in a waterbath. A 10 mg sample of each antimicrobial was dissolved in 1 mL DMSO. A 256 μL aliquot was added to 19.744 mL of molten Isosensitest agar at 50° C. and mixed well. This was poured into a Petri dish to produce a culture plate containing a final concentration of 128 μg/mL. Smaller volumes of solution (ranging from 128-2 μL) were also incorporated into agar plates in similar fashion to produce a final concentration range of 128-1 μg/mL. A set of control plates was prepared containing DMSO at an identical concentration range without antimicrobial.
# (§2) A panel of microorganisms was obtained from the National Collection of Type Cultures (NCTC), Colindale, UK, the National Collection of Pathogenic Fungi (NCPF), Colindale, UK, and the American Type Culture Collection (ATCC), Manassas, Va. USA. The panel included a range of pathogenic species and comprised Bacillus subtillis, Listeria monocytogenes, Staphyloccci epidermidis, Staphylococcus aureus, Staphylococcus aureus (MRSA) and Streptococcis pyogenes, all of which are Gram-positive bacteria. Each strain was cultured onto Columbia agar (Oxoid) and incubated overnight at 37° C. Colonies were then suspended in sterile distilled water (SDW) to produce a suspension of 1.5×10^8 colony forming units CFU/mL using a densitometer. This suspension was then diluted 1/15 in SDW and 1 μL was inoculated onto all test media using a semi-automated multipoint inoculator (final inoculum: 10 000 CFU per spot). All media were incubated at 37° C. for 24 h and examined for the presence of growth. […] All tests were repeated on a separate occasion to ensure reproducibility.
# (§3) Determination of the antimicrobial susceptibility of the samples containing the isolated R and S enantiomers was performed as set out in Example 2.
# [2] = system: Bacillus subtilis; assay: Antimicrobial susceptibility (MIC, agar dilution); format: cell-based; details: Isosensitest agar, 128-1 μg/mL, 37° C. for 24 h
# Procedure: as §1, §2, §3
# [3] = system: Staphylococcus aureus (MRSA); assay: Antimicrobial susceptibility (MIC, agar dilution); format: cell-based; details: Isosensitest agar, 128-1 μg/mL, 37° C. for 24 h
# Procedure: as §1, §2, §3
# [4] = system: Listeria monocytogenes; assay: Antimicrobial susceptibility (MIC, agar dilution); format: cell-based; details: Isosensitest agar, 128-1 μg/mL, 37° C. for 24 h
# Procedure: as §1, §2, §3
# [5] = system: Staphyloccci epidermidis; assay: Antimicrobial susceptibility (MIC, agar dilution); format: cell-based; details: Isosensitest agar, 128-1 μg/mL, 37° C. for 24 h
# Procedure: as §1, §2, §3
# [6] = system: Streptococcis pyogenes; assay: Antimicrobial susceptibility (MIC, agar dilution); format: cell-based; details: Isosensitest agar, 128-1 μg/mL, 37° C. for 24 h
# Procedure: as §1, §2, §3
# [7] = Cell cytotoxicity CC50; format: cell-based; details: human, 6-8 days, top concentration 100 μM, read-out: CC50 (concentration at which 50% cell toxicity is observed)
# Description: (§4) Notes Cell obtained from ATCC and virus prep was subjected to one round of centrifugation through a 40% (V/V) glycerol to remove any interferon produced from infected cells. Growth medium was Dulbecco's modified Eagle's medium (DMEM) with 10% (v/v) foetal calf serum (FCS), Viral maintenance medium was DMEM+2% (v/v) FCS
# Cell Cytotoxicity—CC50 (concentration at which 50% cell toxicity is observed):
# A549 cells and HeLa cells were used to seed a set of 96 well plates grown until 50% confluent, a 2 fold serial dilution of 5-Phenyl-S-3-amino-2,3-dihydro-1H-1,4-benzodiazepin-2-one (5) was performed on each cell line with DMSO (only) as control starting with 100 μM of 5-Phenyl-S-3-amino-2,3-dihydro-1H-1,4-benzodiazepin-2-one (5). Medium used was DMEM+2% FCS (normal medium for viral growth).
# Cells were allowed to grow for 6-8 days to mimic a TCID50 assay after which cell viability was determined by adding Almar blur (similar to XTT) and reading at 600 nm (excitation 540 nm). No significant difference was observed between cells treated with 5-Phenyl-S-3-amino-2,3-dihydro-1H-1,4-benzodiazepin-2-one (5) and the DMSO control. No significant difference was observed between HeLa and A549 cells.
# [8] = system: RSV; assay: Plaque reduction assay; format: cell-based, Human RSV (Respiratory Syncytial Virus); details: A549, 10 μM added 3-4 hours before RSV; control titre 4.5×10^5
# Procedure: as §4
# A549 cells were seeded into a T25 flask and grown until 60-70% confluent. To one set of flasks (n=3) 5-Phenyl-S-3-amino-2,3-dihydro-1H-1,4-benzodiazepin-2-one (5) in DMSO was added at a concentration of 10 μM and allowed to incubate for 3-4 hours before the addition of RSV at an […] and incubated until extensive cytopathic effect (cpe) was evident, usually after 3 days. The concentration of 5-Phenyl-S-3-amino-2,3-dihydro-1H-1,4-benzodiazepin-2-one (5) was kept constant by replacing the medium each day (RSV is largely cell associated). After which virus was harvested by homogenising the cells in a final volume of 1 ml. The viral titre was determined by plaque assay and staining after 8 days. A control assay was conducted using DMSO in place of the DMSO solution of 5-Phenyl-S-3-amino-2,3-dihydro-1H-1,4-benzodiazepin-2-one (5). […]
# [9] = system: RSV A2 strain; assay: Infected cell viability assay (A549 only); format: cell-based, Human RSV (Respiratory Syncytial Virus); details: human respiratory syncytial virus, moi 0.1, 8 days
# Procedure: as §4
# 96 wells plates were set up as previously described. As before a 2 fold serial dilution of 5-Phenyl-S-3-amino-2,3-dihydro-1H-1,4-benzodiazepin-2-one (5) was added prior to addition of virus at a multiplicity of infection (moi) of 0.1, as determined by a plaque assay, in a volume of 50 μl (starting conc 100 μM). After incubating for 4 hours RSV A2 strain was added at an moi of 0.1 maintaining the concentration of 5-Phenyl-S-3-amino-2,3-dihydro-1H-1,4-benzodiazepin-2-one (5). As before, DMSO was the control. The final lane was a mock infected minus 5-Phenyl-S-3-amino-2,3-dihydro-1H-1,4-benzodiazepin-2-one (5) to show viability of cells after 8 days incubation.
# Every two days for up to 8 days the media plus drug was replaced to maintain activity, after 8 days cell viability was assayed by cell staining with methylene blue. Each experiment was performed twice with similar results, see FIG. 14.
# An alternative experiment was set up as before except virus, at an moi of 0.1, was added before the drug and allowed to incubate for 4 hours. […]
# [10] = aqueous; cited from earlier work
smiles,measurement,setting,value
O=c1n(-c2c(F)c(F)nc(F)c2F)c2ccccc2n1-c1c(F)c(F)nc(F)c1F,melting point,,154.9 to 156 °C
O=C1C(=O)N(c2c(F)c(F)nc(F)c2F)c2ccccc21,melting point,,160.3 to 162.6 °C
COC(=O)CNc1c(F)c(F)nc(F)c1F,melting point,,67.8 to 68.7 °C
"O=C1Nc2ccccc2C(c2ccccc2)=NC1Nc1c(F)c(F)nc(F)c1F (racemic) [Compound 5, 5-Phenyl-3-[(tetrafluoropyridin-4-yl)amino]-2,3-dihydro-1H-1,4-benzodiazepin-2-one]",antibacterial activity (by minimum inhibitory concentration),[1],exhibited antibacterial activity
same,antibacterial activity (by minimum inhibitory concentration),[1]; listed as racemate,effective
same,antibacterial activity (by minimum inhibitory concentration),[2],not
same,antibacterial activity (by minimum inhibitory concentration),[3],exhibited antibacterial activity
same,antibacterial activity (by minimum inhibitory concentration),[3]; listed as racemate,effective
same,antibacterial activity (by minimum inhibitory concentration),[4],exhibited antibacterial activity
same,antibacterial activity (by minimum inhibitory concentration),[4]; listed as racemate,effective
same,antibacterial activity (by minimum inhibitory concentration),[5],exhibited antibacterial activity
same,antibacterial activity (by minimum inhibitory concentration),[5]; listed as racemate,effective
same,antibacterial activity (by minimum inhibitory concentration),[6],exhibited antibacterial activity
same,antibacterial activity (by minimum inhibitory concentration),[6]; listed as racemate,effective
same,CC50,[7]; A549 cells,≥ 100000 nM
same,CC50,[7]; HeLa cells,≥ 100000 nM
same,viral titre after exposure,[8],2.3×10^3 viral infectivity units
same,EC50,"[9]; A549, compound added 4 hours before virus, Reed and Meunch, read-out: half maximal effective concentration (EC50)",2400 nM
same,EC50,"[9]; A549, virus added 4 hours before the drug, Reed & Meunch, read-out: EC50",~3000 nM
"O=C1Nc2ccccc2C(c2ccccc2)=N[C@@H]1Nc1c(F)c(F)nc(F)c1F (single isomer, unassigned; enantiomer 5) [S enantiomer, 5-Phenyl-S-3-[(tetrafluoropyridin-4-yl)amino]-2,3-dihydro-1H-1,4-benzodiazepin-2-one]",antibacterial activity (by minimum inhibitory concentration),[1],effective
same,antibacterial activity (by minimum inhibitory concentration),[2],effective
same,antibacterial activity (by minimum inhibitory concentration),[3],effective
same,antibacterial activity (by minimum inhibitory concentration),[4],effective
same,antibacterial activity (by minimum inhibitory concentration),[5],effective
same,antibacterial activity (by minimum inhibitory concentration),[6],effective
O=C1Nc2ccc(Cl)cc2C(c2ccccc2Cl)=NC1O (centres unmarked) [Lorazepam],pKa,[10],~13.0
"O=C1Nc2ccccc2C(c2ccccc2)=N[C@H]1Nc1c(F)c(F)nc(F)c1F [R enantiomer, 5-Phenyl-R-3-[(tetrafluoropyridin-4-yl)amino]-2,3-dihydro-1H-1,4-benzodiazepin-2-one]",antibacterial activity (by minimum inhibitory concentration),[1],effective
same,antibacterial activity (by minimum inhibitory concentration),[3],effective
same,antibacterial activity (by minimum inhibitory concentration),[5],effective
